US12570957B2, “Isolated naive pluripotent stem cells and methods of generating same” (Yeda Research and Development Co. Ltd., priority 2013, dated 2026)

How the values were obtained:
Test in all cases: Pluripotency maintenance after supplementation of inhibitors or growth factors
[1] = system: naive hESCs/hiPSCs; assay type: cell-based; details: naive human cells in WIS-NHSM
Description: (§1) Shown are histograms depicting colony formation of pluripotent cell lines in various media. Cell populations were equally divided and plated on gelatin/vitronectin coated plates in the indicated growth medium in which these cell lines are normally maintained (mouse naive cells in a medium containing 2i/LIF, naive hESCs/iPSCs in a WIS-NHSM medium, mouse EpiSCs and human primed ESCS/iPSCs in a KSR/bFGF/TGFβmedium). 36 hours later the wells were supplemented with the indicated inhibitors or growth factors. After 14 days (2 passages), wells were analyzed for Oct4-GFP pluripotency marker expression by FACS, to determine the relative percentage of pluripotent colonies. Pluripotent cell frequency was normalized to an internal control, as indicated by “Growth medium” only on the far left column (For naive cells growth medium was WIS-NHSM, and for primed cells was conventional KSR/bFGF/TGFβcontaining medium as specified in methods). […]
(§2) FIGS. 108A-108C—Signaling and functional characteristics of human naive pluripotency. […] After 14 days (2 passages), wells were analyzed by OCT4 immunostaining of direct detection of OCT4-GFP pluripotency reporter expression, to determine the relative percentage of undifferentiated pluripotent cells. […] After 20 days, colonies positive for OCT4 pluripotency markers were counted and normalized to colonies from cells electroporated with empty vector. […]

[2] = system: primed hESCs/hiPSCs; assay type: cell-based; details: primed human cells
Description: as §1, §2

[3] = system: naive mESCs; assay type: cell-based, mouse; details: mESCs in 2i/LIF
Description: as §1, §2

SMILES: CC(C)(C)c1nc2c3ccc(F)cc3c3c(=O)[nH]ccc3c2[nH]1 [JAKi]
- response of pluripotent state [1]: differentiated
- response of pluripotent state [2]: resistant
- response of pluripotent state [3]: readily differentiate
